Reference: US20210051963A1, “METHODS AND COMPOSITIONS TO IMPROVE PLANT HEALTH AND/OR PLANT PERFORMANCE” (PLANTRESPONSE BIOTECH, S.L., priority 2017, published 2021)

What was measured:
[1] = test system: Sclerotinia sclerotiorum strain CH109; assay: White mold disease index in tomato plants treated with PRBT, 6-HP-2CA or 6-OXO-2CA; type: in vivo; conditions: for disease index vs untreated inoculated tomato plants: PRBT 0.054 g L-1, 6-HP-2CA 0.1 g/l, 6-OXO-2CA 0.1 g/l, 10 and 14 dpi; for Disease Control (%) / Disease index (10 dpi) / Disease index (15 dpi): inoculated tomato var. Money Maker, PRBT 0.054 g/L, 6-HP-2CA or 6-OXO-2CA 0.1 g/L, 25 ml/plant; for Disease index (10 dpi) / Disease index (15 dpi): score 0-5
Experimental: Tomato plants var. Money Maker were sown on Dec. 13, 2016, distributed in random blocks of 9 plants with 4 replicates (36 plants per treatment) and grown in a standard greenhouse. Treated plants were sprayed on Mar. 6, 2017 with 25 ml/plant at 3 ml/1 (0.054 g L^−1) of PRBT (with surfactant 2:1, v/w, antifoam and biocide) or with 25 ml (0.1 g L^−1) of 6-hydroxypiperidine-2-carboxylic acid (6-HP-2CA), or with 25 ml (0.1 g 1-1) of 6-oxopiperidine-2-carboxylic acid (6-OXO-2CA).
Two days later plants were inoculated with 25 ml/plant of a foliar spray of blended Sclerotinia sclerotiorum strain CH109 mycelium that had been grown to optical density at 600 nm of 0.8. Plants were kept at 100% relative humidity for seven days and then humidity was lowered to 80% for the rest of the experiment. Plants were then evaluated at 10 and 14 days post inoculation (dpi) according to a disease severity index score were 0 corresponds to no symptoms and 5 to a dead plant. No statistically significant differences among treatments with the same letter (LSD method, p=0.05)

[2] = test system: Sclerotinia sclerotiorum strain CH109; assay: White mold disease index in pepper plants treated with PRBT or 6-HP-2CA; type: in vivo; conditions: for Disease index 4 dpi / Disease index 6 dpi: inoculated pepper var. Murano, 10 ml/plant, score 0-4
Experimental: Pepper plants var. Murano were sown on Oct. 20, 2016 and distributed in random blocks of 3 plants with 4 replicates (12 plants per treatment) and grown in a standard greenhouse. PRBT treated plants were sprayed on Nov. 23, 2016 with (0.038 g L^−1) PRBT at 10 ml/plant or with (0.01 g L^−1) 6-hydroxypiperidine-2-carboxylic acid (6-HP-2CA) or with (0.1 g L^−1) 6-HP-2CA or with (0.01 g L^−1) 6-HP-2CA formulated with an adjuvant or with (0.1 g L^−1) 6-HP-2CA (0.01 g L^−1) formulated with an adjuvant at 10 ml/plant. Two days later plants were inoculated with 10 ml/plant of a foliar spray of blended Sclerotinia sclerotiorum strain CH109 mycelium that had been grown to optical density at 600 nm of 1.7. Plants were kept at 100% relative humidity for four days and then humidity was lowered to 80% for the rest of the experiment. Plants were then evaluated 4, and 6 days post inoculation (dpi) according to a disease severity index score were 0 corresponds to no symptoms and 4 to a dead plant. No statistically significant differences among treatments with the same letter (LSD method, p=0.05)

## O=C1CCC[C@H](C(=O)O)N1 (stereo in doubt) [6-OXO-2CA, 6-oxopiperidine-2-carboxylic acid]
[1]
  disease index vs untreated inoculated tomato plants: significantly lower
  Disease Control (%): 10 c %
  Disease index (10 dpi): 2.3 b
  Disease index (15 dpi): 2.3 b

## O=C(O)C1CCCC(O)N1 (stereo not shown) [6-HP-2CA, 6-hydroxypiperidine-2-carboxylic acid]
[1]
  disease index vs untreated inoculated tomato plants: significantly lower
  Disease Control (%): 11 c %
  Disease index (10 dpi): 2.2 b
  Disease index (15 dpi): 2.2 b
[2]; high (0.1 g/L) concentration
  disease index vs untreated inoculated pepper plants: significantly lower
[2]; 0.01 g/L
  Disease index 4 dpi: 0.9 b
  Disease index 6 dpi: 2.3 b
[2]; 0.1 g/L
  Disease index 4 dpi: 0.2 a
  Disease index 6 dpi: 0.5 a
